According to the supplement of paper PMC11061612:

Columns and labels:
[1] = system: BICR10 (Oral Cavity Carcinoma); assay: combination Emax (second highest fraction inhibited in the dose matrix, 72 h); higher = more inhibition; extreme values may be limits of the assay
Summary of the method: (§1)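 After 24 hours at 37°C and 5% CO2 in 1536-well plates, cells in DMEM/F12 or RPMI plus 10% FBS received two-drug dose matrices for 72 hours. Viability came from CellTiter-Glo 2.0 luminescence and was scaled as inhibition, anchored at 0 by vehicle wells and at 1 by blank wells. Combination Emax is taken as the second-highest inhibition in the matrix, and Bliss excess as the observed combination effect less EA + EB − EA·EB, with EA and EB the single-agent effects.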

[2] = system: OCI-AML3 (Acute Myeloid Leukemia); assay: as above
Summary of the method: as §1

[3] = system: DAN-G (Pancreatic Carcinoma); assay: Bliss excess, mean over the matrix (fraction); higher = more synergy
Summary of the method: as §1

[4] = system: BICR10 (Oral Cavity Carcinoma); assay: as above
Summary of the method: as §1

[5] = system: SNU-398 (Hepatocellular Carcinoma); assay: as above
Summary of the method: as §1

[6] = system: OCI-AML3 (Acute Myeloid Leukemia); assay: as above
Summary of the method: as §1
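For Bliss excess, mean over the matrix in this document: after 72 h of two-drug dosing.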

SMILES	combination Emax [1]	combination Emax [2]	Bliss excess [3]	Bliss excess [4]	Bliss excess [5]	Bliss excess [6]
CN(C)CCCOc1ccc(-c2ccc3ncc4c(c3c2)n(C2CCOCC2)c(=O)n4C)cn1 [AZD0156] + O=C(c1cc(Cc2n[nH]c(=O)c3ccccc23)ccc1F)N1CCN(C(=O)C2CC2)CC1 [Olaparib] (first compound max 3 µM, partner max 3 µM)	0.348	0.392	0.0824	0.0275	0.0815	0.128
COc1nnc2ccc(N3CCC(c4ccc(OCCN5CCN(C)C(=O)[C@H]5C)cc4)CC3)nn12 [AZD5153] + C=CCn1c(=O)c2cnc(Nc3ccc(N4CCN(C)CC4)cc3)nc2n1-c1cccc(C(C)(C)O)n1 [AZD1775] (first compound max 1 µM, partner max 1 µM)		1	-0.0496		-0.0315	-0.012
C=CCn1c(=O)c2cnc(Nc3ccc(N4CCN(C)CC4)cc3)nc2n1-c1cccc(C(C)(C)O)n1 [AZD1775] + C1CN(CCC1(C(=O)N[C@@H](CCO)C2=CC=C(C=C2)Cl)N)C3=NC=NC4=C3C=CN4 [Capivasertib] (first compound max 3 µM, partner max 3 µM)	0.829	0.914	-0.0191	-0.0418	0.0054	0.0051
NC1(C(=O)N[C@@H](CCO)c2ccc(Cl)cc2)CCN(c2ncnc3[nH]ccc23)CC1 [Capivasertib] + COc1nnc2ccc(N3CCC(c4ccc(OCCN5CCN(C)C(=O)[C@H]5C)cc4)CC3)nn12 [AZD5153] (first compound max 10 µM, 7x7, partner max 1 µM)		1	0.0578		0.0733	-0.014
Cn1cnc2c(F)c(Nc3ccc(Br)cc3Cl)c(C(=O)NOCCO)cc21 [Selumetinib] + C=CCn1c(=O)c2cnc(Nc3ccc(N4CCN(C)CC4)cc3)nc2n1-c1cccc(C(C)(C)O)n1 [AZD1775] (first compound max 10 µM, partner max 1 µM)		0.94	0.014		0.0182	-0.0213
NC1(C(=O)N[C@@H](CCO)c2ccc(Cl)cc2)CCN(c2ncnc3[nH]ccc23)CC1 [Capivasertib] + Cn1cnc2c(F)c(Nc3ccc(Br)cc3Cl)c(C(=O)NOCCO)cc21 [Selumetinib] (first compound max 10 µM, 7x7, partner max 10 µM)		0.918	-0.002		0.0287	-0.0291
C[C@@H](c1ccc2nccn2c1)n1nnc2ncc(-c3cnn(C)c3)nc21 [Savolitinib] + Cc1c2c(nn1C)CSCc1cc(n(C)n1)CSc1cc(c3ccccc3c1)OCCCc1c(C(=O)O)n(C)c3c-2c(Cl)ccc13 [AZD5991] (first compound max 1 µM, 7x7, partner max 1 µM)		0.967	-0.0434		-0.0697	-0.0103
NC1(C(=O)N[C@@H](CCO)c2ccc(Cl)cc2)CCN(c2ncnc3[nH]ccc23)CC1 [Capivasertib] + CC(=O)c1c(C)c2cnc(Nc3ccc(N4CCNCC4)cn3)nc2n(C2CCCC2)c1=O [Palbociclib] (first compound max 10 µM, 7x7, partner max 10 µM)		0.587	-0.0581		-0.057	0.0866
COc1nnc2ccc(N3CCC(c4ccc(OCCN5CCN(C)C(=O)[C@H]5C)cc4)CC3)nn12 [AZD5153] + Cc1c2c(nn1C)CSCc1cc(n(C)n1)CSc1cc(c3ccccc3c1)OCCCc1c(C(=O)O)n(C)c3c-2c(Cl)ccc13 [AZD5991] (first compound max 1 µM, 7x7, partner max 1 µM)		1	-0.0163		-0.0431	-0.0565
COc1nnc2ccc(N3CCC(c4ccc(OCCN5CCN(C)C(=O)[C@H]5C)cc4)CC3)nn12 [AZD5153] + C[C@@H]1COCCN1C2=NC(=NC(=C2)C3(CC3)[S@](=N)(=O)C)C4=C5C=CNC5=NC=C4 [AZD6738] (first compound max 1 µM, 7x7, partner max 10 µM)		1	0.0374		0.0758	-0.0454
CC(=O)c1c(C)c2cnc(Nc3ccc(N4CCNCC4)cn3)nc2n(C2CCCC2)c1=O [Palbociclib] + CC1(C)CCC(CN2CCN(c3ccc(C(=O)NS(=O)(=O)c4ccc(NCC5CCOCC5)c([N+](=O)[O-])c4)c(Oc4cnc5[nH]ccc5c4)c3)CC2)=C(c2ccc(Cl)cc2)C1 [Venetoclax] (first compound max 10 µM, 7x7, partner max 1 µM)		0.585	-0.0324		0.0232	-0.0679
Cn1cnc2c(F)c(Nc3ccc(Br)cc3Cl)c(C(=O)NOCCO)cc21 [Selumetinib] + CC(C)n1c(=O)n(C)c2cnc3cc(F)c(-c4ccc(OCCCN5CCCCC5)nc4)cc3c21 [AZD1390] (first compound max 10 µM, 7x7, partner max 0.3 µM)		0.909	-0.0484		-0.053	-0.0696
NC1(C(=O)N[C@@H](CCO)c2ccc(Cl)cc2)CCN(c2ncnc3[nH]ccc23)CC1 [Capivasertib] + CC(C)n1c(=O)n(C)c2cnc3cc(F)c(-c4ccc(OCCCN5CCCCC5)nc4)cc3c21 [AZD1390] (first compound max 10 µM, 7x7, partner max 0.3 µM)		0.37	-0.111		-0.0579	-0.11
C[C@@H](c1ccc2nccn2c1)n1nnc2ncc(-c3cnn(C)c3)nc21 [Savolitinib] + CC1(C)CCC(CN2CCN(c3ccc(C(=O)NS(=O)(=O)c4ccc(NCC5CCOCC5)c([N+](=O)[O-])c4)c(Oc4cnc5[nH]ccc5c4)c3)CC2)=C(c2ccc(Cl)cc2)C1 [Venetoclax] (first compound max 1 µM, 7x7, partner max 1 µM)		0.154	-0.09		-0.057	-0.0358
